According to article PMC8845285, “Serotoninergic receptor ligands improve Tamoxifen effectiveness on breast cancer cells” (BMC Cancer, 2022):

Legend:
MCF10A cells = experiment: MCF10A non-cancer breast epithelial cell viability, sulforhodamine B assay; format: cell-based, human; conditions: 72 h
Protocol: MCF7 (ER^+, PR^+, HER2^−), SKBR3 (ER^−, PR^+, HER2^+) and MDA-MB231 (ER^−, PR^−, HER2^−) human BC cells and MCF10A non-cancer breast epithelial cells were available in our laboratory. MCF7, SKBR3 and MDA-MB231 cells were cultured in DMEM, supplemented with 10% FBS, 2 mM glutamine, 100 units/ml penicillin and 100 units/ml streptomycin. MCF10A cells were cultured in MEBM, supplemented with 0.4% BPE, 0.1% hEGF, 0.1%, Insulin, 0.1% Hydrocortisone and 0.1% GA-1000. Cultures were maintained in a humidified atmosphere of 95% air and 5% CO2 at 37 °C. Treatment with SER were carried out in culture conditions. […]
Cells were fixed with 50% trichloroacetic acid for at least 2 h at 4 °C, washed with distilled and de-ionized water, air-dryed and stained 30 min with 0.4% sulforhodamine B in 1% acetic acid. […] Cell survival was assessed by optical density determination at 510 nm using a microplate reader.
Fig. 7 Effect of low doses of SER79 and SER68 on MCF7 and MCF10A cells. a Estrogen-starved MCF7 cells (48 h) were treated with Tamoxifen (5 μM) in presence of E2 (100nM) and SER79 (5 μM) or SER68 (20 μM, 5 μM). […] After 72 h, cell viability was assessed by sulforhodamine B assay (see Methods). […] After 72 h, mRNA levels of CTGF were determined by qPCR (see Methods and Table 1). […] After 72 h, cell viability was assessed by sulforhodamine B assay (see Methods). […]

MCF7-R cells = experiment: Tamoxifen-resistant MCF7-R cell viability, sulforhodamine B assay; format: cell-based, human; conditions: SER 20 μM; for effect on MCF7-R cells if used alone (viability): E2 100 nM, 72 h; for effect on viability of MCF7-R cells in co-treatment with Tamoxifen: Tamoxifen 5 μM, E2, 72 h
Protocol: Cells were fixed with 50% trichloroacetic acid for at least 2 h at 4 °C, washed with distilled and de-ionized water, air-dryed and stained 30 min with 0.4% sulforhodamine B in 1% acetic acid. Unbound dye was removed and 10 mM tris-HCl solution (pH 7.5) was added to dissolve the protein-bound dye. Cell survival was assessed by optical density determination at 510 nm using a microplate reader.
MCF7 cells were cultured for 4 months in phenol-red free medium supplemented with 10% (C/S) FBS and continuously exposed to Tamoxifen (1 μM). […] To further validate the degree of drug resistance, the expression levels of ABCC1, ABCG1 and ABCG2 – members of ABC transporter family known as involved in multi-drug resistance – were evaluated by Quantitative Real-Time PCR (qPCR; see below) upon cell treatment with 5 μM Tamoxifen for 72 h.
Fig. 9 Effect of SER79 and SER68 on Tamoxifen-resistant (MCF7-R) cells. a Estrogen starved MCF7-R were treated with SER79 (20 μM, 5 μM) or SER68 (20 μM) in presence of E2 (100 nM). b Estrogen-starved MCF7-R were treated with Tamoxifen (5 μM) in presence of E2 and SER79 (20 μM) or SER68 (20 μM). a,b As positive control, the cells were treated with E2 alone, in absence or in presence of SER (dotted line). After 72 h, cell viability was assessed by sulforhodamine B assay (see Methods). The results were reported as percentage of viable cells compared to positive control, considered as maximum viability (100%). c mRNA levels of CTGF were determined by qPCR (see Methods and Table 1) in MCF7-R cells upon treatment with SER68 (20 μM). Data were normalized on Ribosomal Protein S23 (Rps23) gene as internal standard and reported as CTGF mRNA levels in MCF7-R. a-c Graphs represent the mean ± SD of at least three independent triplicate experiments. * denotes statistically significant values compared with (b) positive control or (c) MCF7 cells (*adjp<0.05; **adjp<0.001). # denotes statistically significant values compared with untreated MCF7-R (#pval<0.05) […]
Figure S3. Establishment of MCF7 Tamoxifen re sista n t(M C F7-R) cells. MCF7 cells were cultured with Tamoxifen (1µM), in absence of E2, for 4 months (M C F7-R). (a-b) MCF7 and MCF7-R cells were treated with in c re a s in gconcentration of Tamoxifen […]
As positive control, cells were treated with E2 alone. Cell viability was measured by sulforhodamine B assay (se e Methods). The re su ltswere re p o rte das percentage of viable cells compared to untreated cells, considered as maximum viability (100%). […]
(a ) * denotes statistically significant values compared with untreated cells […]
(1 picture or pasted object on this page, not shown here)

With `O=C1C2C3C=CC(C3)C2C(=O)N1OCCN1CCN(c2ccc(Cl)c(Cl)c2)CC1` (stereo not drawn) [SER68] the “effect on MCF10A cell viability” value (MCF10A cells; 20 μM) was “No effect was detected on cell viability”, the “effect on MCF7-R cells if used alone (viability)” value (MCF7-R cells) was “neither” and the “effect on viability of MCF7-R cells in co-treatment with Tamoxifen” value (MCF7-R cells) was “significantly reduced viability”.

With `N#CN=C(NCCCN1CCN(C(c2ccc(F)cc2)c2ccc(F)cc2)CC1)c1ccccn1` [SER79] the “effect on MCF10A cell viability” value (MCF10A cells; 5 μM) was “No effect was detected on cell viability”, the “effect on MCF7-R cells if used alone (viability)” value (MCF7-R cells) was “neither” and the “effect on viability of MCF7-R cells in co-treatment with Tamoxifen” value (MCF7-R cells) was “No significant effect”.
